From patent publication US20260193226A1, “MICROBIOCIDAL TETRAHYDROISOQUINOLINE DERIVATIVES” (SYNGENTA CROP PROTECTION AG, priority 2022, published 2026)

Legend:
[1] = system: Monographella nivalis (Microdochium nivale); assay: Monographella nivalis (Microdochium nivale) / liquid culture (foot rot cereals); format: cell-based; conditions: compared to untreated control
Protocol: (§1) Example B8: Monographella nivalis (Microdochium nivale)/Liquid Culture (Foot Rot Cereals) Conidia of the fungus from cryogenic storage are directly mixed into nutrient broth (PDB potato dextrose broth). After placing a (DMSO) solution of test compound into a microtiter plate (96-well format), the nutrient broth containing the fungal spores is added. The test plates are incubated at 24° C. and the inhibition of growth is determined photometrically 4 to 5 days after application.

[2] = system: Mycosphaerella arachidis (Cercospora arachidicola); assay: Mycosphaerella arachidis (Cercospora arachidicola) / liquid culture (early leaf spot); format: cell-based; conditions: compared to untreated control
Protocol: as §1, with “B9: Mycosphaerella arachidis (Cercospora arachidicola)/Liquid” for “B8: Monographella nivalis (Microdochium nivale)/Liquid”, “(Early Leaf Spot)” for “(Foot Rot Cereals)”

Pyrenophora teres = Pyrenophora teres / barley / leaf disc preventative (net blotch); format: in vivo; conditions: foliar, compared to untreated control
Protocol: Example B12: Pyrenophora teres/Barley/Leaf Disc Preventative (Net Blotch) Barley leaf segments cv. Hasso are placed on agar in a multiwell plate (24-well format) and sprayed with the formulated test compound diluted in water. The leaf segments are inoculated with a spore suspension of the fungus 2 days after application. The inoculated leaf segments are incubated at 20° C. and 65% rh under a light regime of 12 h light/12 h darkness in a climate cabinet and the activity of a compound is assessed as disease control compared to untreated when an appropriate level of disease damage appears in untreated check leaf segments (5 to 7 days after application).

Alternaria solani = Alternaria solani / tomato / leaf disc (early blight); format: in vivo; conditions: foliar, compared to untreated control
Protocol: Example B1: Alternaria solani/Tomato/Leaf Disc (Early Blight) Tomato leaf disks cv. Baby are placed on agar in multiwell plates (24-well format) and sprayed with the formulated test compound diluted in water. The leaf disks are inoculated with a spore suspension of the fungus 2 days after application. The inoculated leaf disks are incubated at 23° C./21° C.

[3] = system: Mycosphaerella graminicola (Septoria tritici); assay: Mycosphaerella graminicola (Septoria tritici) / liquid culture (Septoria blotch); format: cell-based; conditions: Zymoseptoria tritici, compared to untreated control
Protocol: as §1, with “B15: Mycosphaerella graminicola (Septoria tritici)/Liquid” for “B8: Monographella nivalis (Microdochium nivale)/Liquid”, “(Septoria Blotch)” for “(Foot Rot Cereals)”

[4] = system: Glomerella lagenarium (Colletotrichum lagenarium); assay: Glomerella lagenarium (Colletotrichum lagenarium) / liquid culture (anthracnose); format: cell-based; conditions: Colletotrichum orbiculare, compared to untreated control
Protocol: as §1, with “B3: Glomerella lagenarium (Colletotrichum lagenarium)/Liquid” for “B8: Monographella nivalis (Microdochium nivale)/Liquid”, “(Anthracnose)” for “(Foot Rot Cereals)”, “measured” for “determined”, “photometrically 3 to” for “photometrically”, “4” for “4 to 5”

Cc1c([C@H]2CN(C(=O)CCCCCC(F)(F)F)[C@@H](C)c3ccccc32)cnn1C (racemic) [Compound P-29, 7,7,7-trifluoro-1-[rac-(1S,4S)-4-(1,5-dimethylpyrazol-4-yl)-1-methyl-3,4-dihydro-1H-isoquinolin-2-yl]heptan-1-one]
≥ 80%: inhibition of growth at 20 ppm [1] | inhibition of growth at 20 ppm [2] | pest or weed control at 200 ppm (Pyrenophora teres) | pest or weed control at 200 ppm (Alternaria solani) | inhibition of growth at 20 ppm [3]

Cc1c(C2CN(C(=O)CCc3ccc(Cl)cc3)Cc3ccccc32)cnn1C (stereo not shown) [Compound P-22, 3-(4-chlorophenyl)-1-[4-(1,5-dimethylpyrazol-4-yl)-3,4-dihydro-1H-isoquinolin-2-yl]propan-1-one]
≥ 80%: inhibition of growth at 20 ppm [2] | pest or weed control at 200 ppm (Pyrenophora teres) | pest or weed control at 200 ppm (Alternaria solani) | inhibition of growth at 20 ppm [3]

CCCCCNC(=O)N1Cc2ccccc2C(c2cnn(C)c2C)C1 (stereo not shown) [Compound P-31, 4-(1,5-dimethylpyrazol-4-yl)-N-pentyl-3,4-dihydro-1H-isoquinoline-2-carboxamide]
≥ 80%: inhibition of growth at 20 ppm [2] | pest or weed control at 200 ppm (Pyrenophora teres) | pest or weed control at 200 ppm (Alternaria solani) | inhibition of growth at 20 ppm [3]

CCCCCCCC(=O)N1Cc2ccccc2C(c2cnn(C)c2C)C1 (stereo not shown) [Compound P-10, 1-[4-(1,5-dimethylpyrazol-4-yl)-3,4-dihydro-1H-isoquinolin-2-yl]octan-1-one]
≥ 80%: inhibition of growth at 20 ppm [1] | inhibition of growth at 20 ppm [2] | inhibition of growth at 20 ppm [4] | inhibition of growth at 20 ppm [3]

Cc1c(C2CN(C(=O)CCc3ccc(F)cc3)Cc3ccccc32)cnn1C (stereo not shown) [Compound P-7, 1-[4-(1,5-dimethylpyrazol-4-yl)-3,4-dihydro-1H-isoquinolin-2-yl]-3-(4-fluorophenyl)propan-1-one]
≥ 80%: pest or weed control at 200 ppm (Alternaria solani) | inhibition of growth at 20 ppm [3]

CCCCCNC(=O)N1C[C@H](c2cnn(C)c2C)c2ccccc2[C@@H]1C (racemic) [Compound P-43, rac-(1S,4S)-4-(1,5-dimethylpyrazol-4-yl)-1-methyl-N-pentyl-3,4-dihydro-1H-isoquinoline-2-carboxamide]
≥ 80%: inhibition of growth at 20 ppm [1] | inhibition of growth at 20 ppm [2] | pest or weed control at 200 ppm (Pyrenophora teres) | inhibition of growth at 20 ppm [3]

Cc1c([C@H]2CN(C(=O)OCCC3CCCCC3)[C@@H](C)c3ccccc32)cnn1C (racemic) [Compound P-16, 2-cyclohexylethyl rac-(1S,4S)-4-(1,5-dimethylpyrazol-4-yl)-1-methyl-3,4-dihydro-1H-isoquinoline-2-carboxylate]
≥ 80%: inhibition of growth at 20 ppm [1] | inhibition of growth at 20 ppm [2] | inhibition of growth at 20 ppm [4] | inhibition of growth at 20 ppm [3]

CCCCCOC(=O)N1C[C@H](c2cnn(C)c2C)c2ccccc2[C@@H]1C (racemic) [Compound P-28, pentyl rac-(1S,4S)-4-(1,5-dimethylpyrazol-4-yl)-1-methyl-3,4-dihydro-1H-isoquinoline-2-carboxylate]
≥ 80%: inhibition of growth at 20 ppm [1] | inhibition of growth at 20 ppm [2] | inhibition of growth at 20 ppm [4] | pest or weed control at 200 ppm (Alternaria solani) | inhibition of growth at 20 ppm [3]

Cc1c(C2CN(C(=O)OCCC3CCCCC3)Cc3ccccc32)cnn1C (stereo not shown) [Compound P-2, 2-cyclohexylethyl 4-(1,5-dimethylpyrazol-4-yl)-3,4-dihydro-1H-isoquinoline-2-carboxylate]
≥ 80%: inhibition of growth at 20 ppm [1] | inhibition of growth at 20 ppm [2] | inhibition of growth at 20 ppm [4] | inhibition of growth at 20 ppm [3]

Cc1c([C@H]2CN(C(=O)CCCCC(F)F)[C@@H](C)c3ccccc32)cnn1C (racemic) [Compound P-27, 6,6-difluoro-1-[rac-(1S,4S)-4-(1,5-dimethylpyrazol-4-yl)-1-methyl-3,4-dihydro-1H-isoquinolin-2-yl]hexan-1-one]
≥ 80%: inhibition of growth at 20 ppm [1] | inhibition of growth at 20 ppm [2] | pest or weed control at 200 ppm (Pyrenophora teres) | inhibition of growth at 20 ppm [3]
